Several values for one entry are separate records, joined by “and”; a condition that tells them apart may be missing. Equal entries are not always repeated.
Conditions: Liquid, Vibrating tube method

FC(C(F)(F)F)C(F)(F)F [1,1,1,2,3,3,3-heptafluoropropane]
Conditions | mass density
283.14 K, 31470 kPa | 1570.9 kg/m3
283.14 K, 31923 kPa | 1572.2 kg/m3
283.14 K, 31954 kPa | 1572.2 kg/m3
283.14 K, 31990 kPa | 1572.3 kg/m3
283.14 K, 32053 kPa | 1572.5 kg/m3
283.14 K, 32196 kPa | 1572.9 kg/m3
283.14 K, 32239 kPa | 1573 kg/m3
283.14 K, 32276 kPa | 1573 kg/m3
283.14 K, 32317 kPa | 1573.1 kg/m3
283.14 K, 32360 kPa | 1573.2 kg/m3
283.14 K, 32439 kPa | 1573.5 kg/m3
283.14 K, 32476 kPa | 1573.6 kg/m3
283.14 K, 32513 kPa | 1573.7 kg/m3
283.14 K, 32546 kPa | 1573.8 kg/m3
283.14 K, 32585 kPa | 1573.8 kg/m3
283.14 K, 32618 kPa | 1574 kg/m3
283.14 K, 32651 kPa | 1574 kg/m3
283.14 K, 32687 kPa | 1574.2 kg/m3
283.14 K, 32724 kPa | 1574.4 kg/m3
283.14 K, 32761 kPa | 1574.4 kg/m3
283.14 K, 32793 kPa | 1574.4 kg/m3
283.14 K, 32841 kPa | 1574.7 kg/m3
283.14 K, 32986 kPa | 1574.9 kg/m3
283.14 K, 33019 kPa | 1575.2 kg/m3
283.14 K, 33051 kPa | 1575.2 kg/m3
283.14 K, 33098 kPa | 1575.1 kg/m3
283.14 K, 33128 kPa | 1575.4 kg/m3
283.14 K, 33158 kPa | 1575.5 kg/m3
283.14 K, 33205 kPa | 1575.6 kg/m3
283.14 K, 33237 kPa | 1575.7 kg/m3
283.14 K, 33312 kPa | 1575.9 kg/m3
283.15 K, 461 kPa | 1449.6 kg/m3 and 1449.7 kg/m3 and 1449.5 kg/m3
283.15 K, 462 kPa | 1449.6 kg/m3 and 1449.5 kg/m3 and 1449.7 kg/m3
283.15 K, 463 kPa | 1449.6 kg/m3
283.15 K, 465 kPa | 1449.6 kg/m3
283.15 K, 485 kPa | 1449.7 kg/m3
283.15 K, 513 kPa | 1449.9 kg/m3
283.15 K, 538 kPa | 1450.1 kg/m3
283.15 K, 571 kPa | 1450.2 kg/m3
283.15 K, 601 kPa | 1450.5 kg/m3
283.15 K, 635 kPa | 1450.8 kg/m3
283.15 K, 666 kPa | 1450.9 kg/m3
283.15 K, 696 kPa | 1451.1 kg/m3
283.15 K, 723 kPa | 1451.2 kg/m3
283.15 K, 745 kPa | 1451.3 kg/m3
283.15 K, 785 kPa | 1451.6 kg/m3
283.15 K, 825 kPa | 1451.8 kg/m3
283.15 K, 870 kPa | 1452 kg/m3
283.15 K, 902 kPa | 1452.3 kg/m3
283.15 K, 2647 kPa | 1462.4 kg/m3
283.15 K, 2695 kPa | 1462.6 kg/m3
283.15 K, 2733 kPa | 1462.7 kg/m3
283.15 K, 2772 kPa | 1462.9 kg/m3
283.15 K, 2817 kPa | 1463.3 kg/m3
283.15 K, 2855 kPa | 1463.4 kg/m3
283.15 K, 2910 kPa | 1463.7 kg/m3
283.15 K, 2943 kPa | 1464 kg/m3
283.15 K, 2982 kPa | 1464.2 kg/m3
283.15 K, 3012 kPa | 1464.3 kg/m3
283.15 K, 3043 kPa | 1464.5 kg/m3
283.15 K, 3065 kPa | 1464.6 kg/m3
283.15 K, 3097 kPa | 1464.7 kg/m3
283.15 K, 3117 kPa | 1464.9 kg/m3
283.15 K, 3653 kPa | 1467.8 kg/m3
283.15 K, 3681 kPa | 1467.9 kg/m3
283.15 K, 3713 kPa | 1468.1 kg/m3
283.15 K, 3737 kPa | 1468.2 kg/m3
283.15 K, 3764 kPa | 1468.5 kg/m3
283.15 K, 3789 kPa | 1468.4 kg/m3
283.15 K, 3818 kPa | 1468.6 kg/m3
283.15 K, 3851 kPa | 1468.8 kg/m3
283.15 K, 3880 kPa | 1469 kg/m3
283.15 K, 3906 kPa | 1469.1 kg/m3
283.15 K, 3935 kPa | 1469.3 kg/m3
283.15 K, 3961 kPa | 1469.4 kg/m3
283.15 K, 4806 kPa | 1473.8 kg/m3
283.15 K, 4895 kPa | 1474.2 kg/m3
283.15 K, 4922 kPa | 1474.4 kg/m3
283.15 K, 4945 kPa | 1474.4 kg/m3
283.15 K, 5000 kPa | 1474.7 kg/m3
283.15 K, 5032 kPa | 1474.9 kg/m3
283.15 K, 5060 kPa | 1475.1 kg/m3
283.15 K, 5088 kPa | 1475.3 kg/m3
283.15 K, 5115 kPa | 1475.2 kg/m3
283.15 K, 5147 kPa | 1475.5 kg/m3
283.15 K, 5176 kPa | 1475.7 kg/m3
283.15 K, 5204 kPa | 1475.8 kg/m3
283.15 K, 5232 kPa | 1476 kg/m3
283.15 K, 5260 kPa | 1476.1 kg/m3
283.15 K, 5284 kPa | 1476.2 kg/m3
283.15 K, 5323 kPa | 1476.4 kg/m3
283.15 K, 5350 kPa | 1476.5 kg/m3
283.15 K, 5373 kPa | 1476.8 kg/m3
283.15 K, 5402 kPa | 1476.8 kg/m3
283.15 K, 5425 kPa | 1477 kg/m3
283.15 K, 5522 kPa | 1477.4 kg/m3
283.15 K, 5563 kPa | 1477.6 kg/m3
283.15 K, 5594 kPa | 1477.8 kg/m3
283.15 K, 5634 kPa | 1478 kg/m3
283.15 K, 5666 kPa | 1478.1 kg/m3
283.15 K, 6204 kPa | 1480.7 kg/m3
283.15 K, 6271 kPa | 1480.9 kg/m3

From the NIST ThermoML archive (doi:10.1021/je700260f)
